Source: patent US20250101061A1, “UPREGULATION OF FERRITIN HEAVY CHAIN 1 EXPRESSION” (HBC Immunology Inc., priority 2022, published 2025)
Values joined by “and” are separate entries in the source; they are usually repeats but may differ in a detail not shown here. Equal entries are not always repeated.

Key:
[1] = system: FTH1; assay: FTH1 gene expression in human skeletal muscle cells (HSkMC) by qRT-PCR; format: cell-based; details: for FTH1 Fold Change, Average / FTH1 Fold Change (individual runs): SPH 100 μM or synthetic oligopeptide 10 μM, about 12 hours; for FTH1 Fold Change (individual runs): triplicate runs; for FTH1 Fold Change at 0.625 μM / FTH1 Fold Change at 1.25 μM / FTH1 Fold Change at 2.5 μM / FTH1 Fold Change at 5 μM / FTH1 Fold Change at 10 μM: average of triplicate (SD ≤ 0.3)
Method: A cell line derived from human skeletal muscle was selected to assess the effect of SPH and oligopeptides on gene expression. HSkMC (PCS-950-010) obtained from ATCC (Manassas, VA) were propagated in Mesenchymal Stem Cell Basal Medium (ATCC) reduced serum medium supplemented with Primary Skeletal Cell Muscle Growth Kit (ATCC) that contains L-Glutamine (10 mM), Dexamethasone ([…]), rh epidermal growth factor (5 ng/ml), rh FGF-b (5 ng/ml), rh Insulin (25 μg/mL), and fetal bovine serum (4%), on 100 mm cell culture dishes. For this assay, the HSkMC cells were seeded in 24 well plates at a cell density of 1×10^4 cells/cm^2 and maintained at 37° C. in a humidified 5% CO2 atmosphere. […]
Total RNA was extracted using the UPzol reagent for the cell pellets, followed by a DNAse treatment (DNAse TURBO), using the manufacturer's protocols. Complementary DNA (cDNA) was synthesized with the High Capacity cDNA Reverse Transcription Kit (Applied Biosystems) using random hexamers. Gene expression levels were measured by qRT-PCR.
1 μl of cDNA corresponding to 50 ng of reverse transcribed RNA was amplified by Qpcr (QuantStudio™ 6 Flex Real-Time PCR System), using the TaqMan™ Universal PCR Master Mix (Catalog No. 4304437) and a TaqMan™ assay (Roche Molecular Systems, Inc., Pleasanton, CA).
FTH1 gene expression was estimated relative to expression of the housekeeping gene, beta-actin (ACTB), following the standard formula: […]
2-ΔCt. TaqMan™ probe IDs used were: (i) FTH1, Hs01694011_s1; and (ii) ACTB, Hs01060665_g1. All experiments were run in triplicate.

[2] = system: Immortalized human astrocytes (P10251-IM); assay: Protection of human astrocytes from hemin-induced injury (LDH release assay); format: cell-based; details: 24 hr pre-treatment: SPH 160 μM, oligopeptide 10 μM, collagen control 160 μM; then 30 μM hemin 6 hrs; scaled to 0.1% Triton X-100 lysis
Method: Immortalized human astrocytes (P10251-IM) were obtained from Innoprot, Spain and prepared under conditions recommended by the supplier. At 90% confluency, the P10251-IM cells were rinsed with 8 ml of DPBS and 2 ml of the T/E Solution (prepared as per Innoprot procedure), then added into an […] and gently rocked so that the P10251-IM cells would be completely covered. The flask was subsequently incubated at 37° C. for 2 minutes. Then 5 ml of fetal bovine serum (FBS) and the T/E solution from the flask were added into a 50 ml conical centrifuge tube. The flask was incubated for an additional 2 minutes, and the P10251-IM cells dislodged from the surface by gentle tapping. The P10251-IM cells were then transferred to the 50 ml conical centrifuge tube with 5 ml of TNS solution. The tube was centrifuged at 1000 rpm for 5 minutes. Then the P10251-IM cells were resuspended in the culture medium, counted, and plated in a poly-L-lysine-coated culture plate at 1×10^4 cell density. Cells were tested after they were incubated for 21 days in vitro.
Confluent P10251-IM cell cultures were washed and then pre-treated with medium alone, or medium supplemented with SPH (160 μM) or an oligopeptide (10 μM) for 24 hr at 37° C. Commercial collagen peptide (Vital Protein) at 160 μM concentration and sterile water were used as negative controls. The P10251-IM cells were subsequently treated with 30 μM hemin in serum-free medium consisting of MEM with 10 mM glucose (MEM10) for 6 hrs.
P10251-IM astrocyte cultures that were […] with 30 μM hemin sustained widespread cell injury. Cell viability was quantified using the lactate dehydrogenase (LDH) release assay as previously described (Chen and Regan, Curr Neurovasc Res, 2:189-196, 2005). Briefly, quantification of the protective effects of SPH and oligopeptides were assessed by determining the mean percentage LDH released, scaled to the complete lysis control culture which was treated with 0.1% Triton X-100 (considered to release 100% of culture LDH).

Substance: LDEESGEP [FT-005]
- FTH1 Fold Change, Average [1]: 1.8 fold
- FTH1 Fold Change (individual runs) [1]: 1.7 fold and 1.8 fold (2×)

Substance: Triton X-100 [0.1% Triton X-100, reference compound]
- % LDH Release (individual runs) [2]: 100% (2×) and 99%
- % LDH Release, Average [2]: 100%

Substance: REESGE [FT-001]
- FTH1 Fold Change, Average [1]: 1.7 fold
- FTH1 Fold Change (individual runs) [1]: 1.6 fold and 1.8 fold (2×)

Substance: KEEDEESGE [FT-003]
- FTH1 Fold Change, Average [1]: 1.1 fold
- FTH1 Fold Change (individual runs) [1]: 1.1 fold and 1.0 fold and 1.3 fold

Substance: REESGEP [FT-002]
- FTH1 Fold Change at 0.625 μM [1]: 1.0 fold
- FTH1 Fold Change at 1.25 μM [1]: 1.0 fold
- FTH1 Fold Change at 2.5 μM [1]: 1.1 fold
- FTH1 Fold Change at 5 μM [1]: 1.4 fold
- FTH1 Fold Change at 10 μM [1]: 2.2 fold
- FTH1 Fold Change, Average [1]: 2.2 fold
- FTH1 Fold Change (individual runs) [1]: 2.1 fold and 2.0 fold and 2.5 fold

Substance: KPREESGE [FT-004]
- FTH1 Fold Change at 0.625 μM [1]: 1.1 fold
- FTH1 Fold Change at 1.25 μM [1]: 1.1 fold
- FTH1 Fold Change at 2.5 μM [1]: 1.1 fold
- FTH1 Fold Change at 5 μM [1]: 1.3 fold
- FTH1 Fold Change at 10 μM [1]: 2.1 fold
- FTH1 Fold Change, Average [1]: 2.1 fold
- FTH1 Fold Change (individual runs) [1]: 2.1 fold and 2.2 fold and 1.9 fold
